Residue numbers refer to the chain shown, from its start. pEC50, pIC50, pKi: −log10 of the molar value.
Tests used:
r5-HT3AR = biological target: T1, r5-HT3AR (Rattus norvegicus, UniProt P35563, I207V); assay: FLIPR Blue membrane potential assay, inhibition of 5-HT response; format: cell-based
T1 sequence (P35563 24-483 I207V): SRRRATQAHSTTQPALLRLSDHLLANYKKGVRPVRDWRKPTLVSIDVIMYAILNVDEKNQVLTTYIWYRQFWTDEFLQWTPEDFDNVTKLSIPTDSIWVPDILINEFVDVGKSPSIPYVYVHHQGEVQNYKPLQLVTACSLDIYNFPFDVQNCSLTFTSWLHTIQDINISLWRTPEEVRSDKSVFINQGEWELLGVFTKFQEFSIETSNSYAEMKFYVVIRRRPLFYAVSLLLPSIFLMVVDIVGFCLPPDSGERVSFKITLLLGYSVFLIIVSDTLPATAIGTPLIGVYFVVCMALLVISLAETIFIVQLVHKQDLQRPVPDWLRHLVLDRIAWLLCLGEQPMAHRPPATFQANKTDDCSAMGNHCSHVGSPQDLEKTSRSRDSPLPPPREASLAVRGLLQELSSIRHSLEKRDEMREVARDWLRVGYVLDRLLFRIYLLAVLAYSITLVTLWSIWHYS

h5-HT3AR [1] = biological target: T2, h5-HT3AR (Homo sapiens, UniProt P46098, R200K); assay: as above; format: cell-based
T2 sequence (P46098 24-478 R200K): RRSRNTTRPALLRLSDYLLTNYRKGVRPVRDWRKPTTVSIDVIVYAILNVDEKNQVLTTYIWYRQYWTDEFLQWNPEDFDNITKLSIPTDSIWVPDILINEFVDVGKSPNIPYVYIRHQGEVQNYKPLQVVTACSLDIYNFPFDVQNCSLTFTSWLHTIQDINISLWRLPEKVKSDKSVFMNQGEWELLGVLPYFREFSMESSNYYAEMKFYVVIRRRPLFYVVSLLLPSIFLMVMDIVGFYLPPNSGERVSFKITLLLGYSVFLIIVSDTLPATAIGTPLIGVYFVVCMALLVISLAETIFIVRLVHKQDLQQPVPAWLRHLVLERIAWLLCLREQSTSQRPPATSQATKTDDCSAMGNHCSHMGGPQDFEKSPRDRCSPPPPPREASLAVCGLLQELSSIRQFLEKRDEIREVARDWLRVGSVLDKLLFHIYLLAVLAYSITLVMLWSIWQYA

h5-HT3AR [2] = biological target: T3, h5-HT3AR (Homo sapiens, UniProt P46098); assay: as above; format: cell-based
T3 sequence (P46098 24-478): T2 sequence (P46098 24-478 R200K) with K177R

h5-HT3AR [3] = biological target: T4, h5-HT3AR (Homo sapiens, UniProt P46098, Y228S); assay: as above; format: cell-based
T4 sequence (P46098 24-478 Y228S): T2 sequence (P46098 24-478 R200K) with K177R, Y205S

h5-HT3AR [4] = biological target: T3, h5-HT3AR; assay: TEVC, Xenopus oocytes, activation; format: cell-based
h5-HT3AR [5] = biological target: T3, h5-HT3AR; assay: [3H]-GR65630 displacement, HEK-293 membranes; format: binding
h5-HT3AR [6] = biological target: T5, h5-HT3AR (Homo sapiens, UniProt P46098, M223I); assay: FLIPR Blue membrane potential assay, inhibition of 5-HT response; format: cell-based
T5 sequence (P46098 24-478 M223I): T2 sequence (P46098 24-478 R200K) with K177R, M200I

- pIC50 (r5-HT3AR): 8.00
- pIC50 (h5-HT3AR [1]): 7.03
- pIC50 (h5-HT3AR [2]): 7.70
- pIC50 (h5-HT3AR [3]): 7.08
- pEC50 (h5-HT3AR [4]): 6.82
- pKi (h5-HT3AR [5]): 7.62
- pIC50 (h5-HT3AR [6]): 7.70
Compound: Cc1ccc(Sc2ccccc2N2CCNCC2)c(C)c1 [vortioxetine]

Source: article doi:10.1101/2024.02.23.581731v1 (biorxiv, 2024)
